US20070116829A1, “Pharmaceutical Composition with High-Potency Sweetener” (THE COCA-COLA COMPANY, priority 2005, published 2007)

Columns and labels:
[1] = Rate of dissolution in H2O at 25° C. of rebaudioside A polymorph and amorphous forms; type: physicochemical
[2] = type: physicochemical
Description: A solution of rebaudioside A (>97% pure by HPLC) was prepared in double distilled water (12.5 gm in 50 mL, 25% concentration) by stirring the mixture at 40° C. for 5 minutes. An amorphous form of rebaudioside A was formed by immediately using the clear solution for spray drying with the Lab-Plant spray drier SD-04 instrument (Lab-Plant Ltd., West Yorkshire, U.K.). The solution was fed through the feed pump into the nozzle atomizer which atomized it into a spray of droplets with the help of a constant flow of nitrogen/air. […] This dry powder (11-12 g, H2O 6.74%) was discharged continuously from the drying chamber and was collected in a bottle.

SMILES	Rate of dissolution in H2O at 25° C. (in words) [1]	Rate of dissolution in H2O at 25° C. ([1]; per 60 minutes)	Rate of dissolution in H2O at 25° C. ([1]; per 5 minutes)	solubility in water at room temperature [2]
C=C1C[C@@]23CC[C@H]4[C@@](C)(CCC[C@@]4(C)C(=O)O[C@@H]4O[C@H](CO)[C@@H](O)[C@H](O)[C@H]4O)[C@@H]2CC[C@]1(O[C@@H]1O[C@H](CO)[C@@H](O)[C@H](O[C@@H]2O[C@H](CO)[C@@H](O)[C@H](O)[C@H]2O)[C@H]1O[C@@H]1O[C@H](CO)[C@@H](O)[C@H](O)[C@H]1O)C3 [Form 1, rebaudioside A]	Very low	(<0.2%/60 %/60 minutes	–	–
C=C1C[C@@]23CC[C@H]4[C@@](C)(CCC[C@@]4(C)C(=O)O[C@@H]4O[C@H](CO)[C@@H](O)[C@H](O)[C@H]4O)[C@@H]2CC[C@]1(O[C@@H]1O[C@H](CO)[C@@H](O)[C@H](O[C@@H]2O[C@H](CO)[C@@H](O)[C@H](O)[C@H]2O)[C@H]1O[C@@H]1O[C@H](CO)[C@@H](O)[C@H](O)[C@H]1O)C3 [Form 2, rebaudioside A]	Intermediate	–	(<30%/5 %/5 minutes	–
C=C1C[C@@]23CC[C@H]4[C@@](C)(CCC[C@@]4(C)C(=O)O[C@@H]4O[C@H](CO)[C@@H](O)[C@H](O)[C@H]4O)[C@@H]2CC[C@]1(O[C@@H]1O[C@H](CO)[C@@H](O)[C@H](O[C@@H]2O[C@H](CO)[C@@H](O)[C@H](O)[C@H]2O)[C@H]1O[C@@H]1O[C@H](CO)[C@@H](O)[C@H](O)[C@H]1O)C3 [Form 3, rebaudioside A]	High	–	(>30%/5 %/5 minutes	–
C=C1C[C@@]23CC[C@H]4[C@@](C)(CCC[C@@]4(C)C(=O)O[C@@H]4O[C@H](CO)[C@@H](O)[C@H](O)[C@H]4O)[C@@H]2CC[C@]1(O[C@@H]1O[C@H](CO)[C@@H](O)[C@H](O[C@@H]2O[C@H](CO)[C@@H](O)[C@H](O)[C@H]2O)[C@H]1O[C@@H]1O[C@H](CO)[C@@H](O)[C@H](O)[C@H]1O)C3 [Form 4, rebaudioside A]	High	–	(>35.0%/5 %/5 minutes	> 35.0%
